In EP4722219A1 (Gan & Lee Pharmaceuticals Co., Ltd., priority 2023, dated 2024):
pIC50: −log10 of the molar value.

Tests used:
Type in all cases: cell-based
[1] = system: T-47D cells; assay: Inhibition of cell proliferation in T-47D cells (CCK-8); conditions: Homo sapiens, T47D, 144 h, 6 days treatment, CCK-8 cell viability
In short: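 T-47D cells (3,000/well) in RPMI-1640 with 10% FBS were exposed to a concentration range of PROTAC compounds for 6 days at 37 °C, 5% CO2. Viability read by CCK-8; IC50 fitted from inhibition rate.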

[2] = system: MCF-7 cells; assay: Inhibition of cell proliferation in MCF-7 cells (CCK-8); conditions: Homo sapiens, MCF7, 144 h, MCF-7 cell proliferation, 6 days treatment
In short: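 MCF-7 cells, 800 per well in DMEM plus 10% FBS, exposed to graded PROTAC concentrations for 6 days at 37 °C, 5% CO2. Viability by CCK-8; IC50 fitted from inhibition rates.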

[3] = biological target: T1, ERα (Homo sapiens, UniProt P03372); assay: ERα degradation in T-47D cells (Western blot); conditions: 4 hours
T1 sequence (P03372 1-595): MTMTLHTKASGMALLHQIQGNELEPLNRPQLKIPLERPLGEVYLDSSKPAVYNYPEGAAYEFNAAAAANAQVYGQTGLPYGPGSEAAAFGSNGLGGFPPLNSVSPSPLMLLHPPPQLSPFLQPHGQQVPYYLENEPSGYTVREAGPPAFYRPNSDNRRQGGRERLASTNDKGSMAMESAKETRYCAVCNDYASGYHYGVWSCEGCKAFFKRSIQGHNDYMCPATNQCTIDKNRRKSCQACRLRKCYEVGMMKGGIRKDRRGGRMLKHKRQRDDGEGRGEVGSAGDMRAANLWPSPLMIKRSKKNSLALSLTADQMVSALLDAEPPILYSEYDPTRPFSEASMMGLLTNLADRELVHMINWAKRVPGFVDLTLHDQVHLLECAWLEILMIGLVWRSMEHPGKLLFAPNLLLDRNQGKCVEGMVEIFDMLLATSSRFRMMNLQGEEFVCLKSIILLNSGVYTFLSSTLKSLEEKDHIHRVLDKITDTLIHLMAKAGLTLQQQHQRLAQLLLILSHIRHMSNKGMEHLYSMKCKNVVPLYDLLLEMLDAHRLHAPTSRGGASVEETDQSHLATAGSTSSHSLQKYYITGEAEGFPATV
Method: (§1) Western blotting: The total protein concentration in the collected cell lysate supernatant was determined using the BCA protein concentration assay kit (enhanced) (P0009, Beyotime). Based on the total protein concentration determined by BCA, the protein concentration was adjusted to 1 µg/µL using RIPA lysis buffer and 5× SDS-PAGE protein loading buffer (MB01015, GenScript). The protein was denatured in a 95°C water bath for 5 minutes. After denaturation, the condensed water on the tube wall was collected by centrifugation and used as the loading sample. 20µL of the loading sample (20 µg of total protein) was added to the sample well of a 12% precast gel (M00669, GenScript). Electrophoresis was performed at 100 V for 20 minutes, followed by switching to 150 V for 40 minutes. After electrophoresis, the proteins from the SDS-PAGE gel were transferred to a PVDF membrane at a constant voltage of 100 V for 60 minutes. After transfer, the PVDF membrane corresponding to the ERα protein and internal reference protein was cut and incubated in 1× QµickBlock blocking buffer (P0252, Beyotime) for 30 minutes at room temperature on a shaker. After blocking, the ERα primary antibody (1:1000, 8644S, CST) was added and incubated overnight at 4°C on a shaker. The PVDF membrane was washed three times with 1× TBST buffer for 5 minutes each. Rabbit IgG (H+L) secondary antibody (1:7500, SA5-35571, Invitrogen) was added and incubated for 1 hour at room temperature on a shaker. The membrane was then washed again three times with 1× TBST buffer for 5 minutes each. Finally, the membrane was imaged using a dual-color infrared laser imaging system (Odyssey DLx, LICOR). Protein maps were analyzed for grayscale value using Image Studio Lite software. The grayscale correction value for each sample was calculated using the formula: grayscale correction value = grayscale value of the target protein / grayscale value of the corresponding internal reference. Then the grayscale correction values of the compound group and the control group were compared to calculate the degradation rate of the compound. Table 4 Degradation rate of ERα by PROTAC compounds of the present invention and positive control in MCF-7 cells (%)
Test Example 5 Degradation of ERα by the PROTAC compounds disclosed in the present invention in T-47D cells
T-47D (ATCC) cells were cultured in PRMI-1640 medium (30-2001, ATCC) containing 10% FBS (10099141C, Gibco) at 37°C and 5% CO2 until they entered the logarithmic growth phase. T-47D cells were seeded at a density of 3×10^5 cells/well in a 6-well plate and incubated at 37°C, 5% CO2 for 24 hours. After cell attachment, 1 µL of compound dimethyl sulfoxide solution (final concentration 0.15-1000 nM) was added and incubated for another 4 hours at 37°C, 5% CO2 incubator. After 4 hours, the culture medium was discarded, and each well was washed once with 1 mL of pre-chilled 1× DPBS. The cells were then lysed with 50 µL of RIPA lysis buffer (P0013B, Beyotime) and 1× protease inhibitor cocktail (P1005, Beyotime). After incubation on ice for 20 minutes, the cells were centrifuged at 14,000 g at 4°C for 30 minutes. The supernatant was carefully collected and analyzed for ERα protein levels by immunoblotting. Table 5 Degradation rate of ERα by PROTAC compounds of the present invention and positive control sample in T-47D cells (%)

[4] = biological target: T1, ERα; assay: ERα degradation in MCF-7 cells (Western blot); set-up: host or cells: MCF-7; conditions: 4 hours
Method: Test Example 4 Effect of PROTAC Compounds Disclosed in the Present Invention on ERα Degradation in MCF-7 Cells
MCF-7 (ATCC) cells were cultured in DMEM medium (11995-065, Gibco) containing 10% FBS (10099141C, Gibco) at 37°C and 5% CO2 until they entered the logarithmic growth phase. MCF-7 cells were plated at a density of 3×10^5 cells/well in a 6-well plate and incubated at 37°C, 5% CO2 for 24 hours. After cell attachment, 1µL of compound in dimethyl sulfoxide (final concentration 0.15-1000nM) was added and incubated for another 4 hours at 37°C, 5% CO2 incubator. After 4 hours, the culture medium was discarded, and each well was washed once with 1 mL of pre-chilled 1× DPBS. The cells were then lysed with 50 µL of RIPA lysis buffer (P0013B, Beyotime) and 1× protease inhibitor cocktail (P1005, Beyotime). After incubation on ice for 20 minutes, the cells were centrifuged at 14,000 g at 4°C for 30 minutes. The supernatant was carefully collected and analyzed for ERα protein levels by immunoblotting.
as §1

SMILES	pIC50 [1]	pIC50 [2]	Degradation rate of ERα in T-47D cells (%) ([3]; 1nM)	Degradation rate of ERα in T-47D cells (%) ([3]; 10nM)	Degradation rate of ERα in MCF-7 cells (%) ([4]; 1nM)	Degradation rate of ERα in MCF-7 cells (%) ([4]; 10nM)
O=C1CCC(n2c(=O)n3c4c(cccc42)N(C[C@H]2CC[C@@H](OC4CCN(c5ccc([C@@H]6c7ccc(O)cc7CC[C@@H]6c6ccccc6)cc5)CC4)CC2)CC3)C(=O)N1 (stereo partly drawn) [ER-P-56, 3-(6-(((1S,4s)-4-((1-(4-((1R,2S)-6-hydroxy-2-phenyl-1,2,3,4-tetrahydronaphthalen-1-yl)phenyl)piperidin-4-yl)oxy)cyclohexyl)methyl)-2-oxo-5,6-dihydro-4H-imidazo[1,5,4-de]quinoxalin-1(2H)-yl)piperidine-2,6-dione]	7.37	5.61	22	24	-4	16
Cn1c(=O)n(C2CCC(=O)NC2=O)c2ccc3c(c21)C1(CCN(C2CCC4(CC2)CN(c2ccc([C@@H]5c6ccc(O)cc6CC[C@@H]5c5ccccc5)cc2)C4)CC1)CO3 (stereo partly drawn) [ER-P-19, 3-(1'-(2-(4-((1R,2S)-6-hydroxy-2-phenyl-1,2,3,4-tetrahydronaphthalen-1-yl)phenyl)-2-azaspiro[3.5]nonan-7-yl)-1-methyl-2-oxo-1,2-dihydro-3H,7H-spiro[benzofuro[4,5-d]imidazole-8,4'-piperidin]-3-yl)piperidine-2,6-dione]	7.99	5.35	6	15	-8	7
O=C1CCC(Nc2ccc3c(c2)COC[C@H]2CN(C[C@H]4CC[C@@H](OC5CCN(c6ccc([C@@H]7c8ccc(O)cc8CC[C@@H]7c7ccccc7)cc6)CC5)CC4)CCN32)C(=O)N1 (stereo partly drawn) [ER-P-34, 3-(((R)-3-(((1S,4S)-4-((1-(4-((1R,2S)-6-hydroxy-2-phenyl-1,2,3,4-tetrahydronaphthalen-1-yl)phenyl)piperidin-4-yl)oxy)cyclohexyl)methyl)-1,2,3,4,4a,5-hexahydro-7H-benzo[e]pyrazino[2,1-c][1,4]oxazepin-9-yl)amino)piperidine-2,6-dione]	7.57	5.67	15	24	5	17
O=C1CCC(Nc2ccc3c(c2)OC2(CC3)CCN(C[C@H]3CC[C@@H](OC4CCN(c5ccc([C@@H]6c7ccc(O)cc7CC[C@@H]6c6ccccc6)cc5)CC4)CC3)CC2)C(=O)N1 (stereo partly drawn) [ER-P-43, 3-((1'-(((1S,4s)-4-((1-(4-((1R,2S)-6-hydroxy-2-phenyl-1,2,3,4-tetrahydronaphthalen-1-yl)phenyl)piperidin-4-yl)oxy)cyclohexyl)methyl)spiro[chromane-2,4'-piperidin]-7-yl)amino)piperidine-2,6-dione]	7.02	5.97	10	-1	-13	-19
CN(c1ccc2c(c1)COC[C@H]1CN(CC3CCC(OC4CCN(c5ccc([C@@H]6c7ccc(O)cc7CC[C@@H]6c6ccccc6)cc5)CC4)CC3)CCN21)C1CCC(=O)NC1=O (stereo partly drawn) [ER-P-52, 3-(((R)-3-((4-((1-(4-((1R,2S)-6-hydroxy-2-phenyl-1,2,3,4-tetrahydronaphthalen-1-yl)phenyl)piperidin-4-yl)oxy)cyclohexyl)methyl)-1,2,3,4,4a,5-hexahydro-7H-benzo[e]pyrazino[2,1-c][1,4]oxazepin-9-yl)(methyl)amino)piperidine-2,6-dione]	6.61	6.07	6	6	-2	7
Cn1c(=O)n(C2CCC(=O)NC2=O)c2ccc3c(c21)C1(CCN(C(=O)[C@H]2CC[C@H](CN4CCN(c5ccc([C@@H]6c7ccc(O)cc7CC[C@@H]6c6ccccc6)cc5)CC4)CC2)CC1)CO3 (stereo partly drawn) [ER-P-7]	8.76	6.22	44	77	22	62
O=C1CC[C@H](NC(=O)c2ccc3c(c2F)OCC32CCN(C3CC4(CCN(c5ccc([C@@H]6c7ccc(O)cc7CC[C@@H]6c6ccccc6)cc5)CC4)C3)CC2)C(=O)N1 [ER-P-37, N-((S)-2,6-dioxopiperidin-3-yl)-7-fluoro-1'-(7-(4-((1R,2S)-6-hydroxy-2-phenyl-1,2,3,4-tetrahydronaphthalen-1-yl)phenyl)-7-azaspiro[3.5]nonan-2-yl)-2H-spiro[benzofuran-3,4'-piperidine]-6-carboxamide]	7.72	5.85	6	4	-6	-9
CN(c1ccc2c(c1)OCC21CCN(C[C@H]2CC[C@@H](OC3CCN(c4ccc([C@@H]5c6ccc(O)cc6CC[C@@H]5c5ccccc5)cc4)CC3)CC2)CC1)C1CCC(=O)NC1=O (stereo partly drawn) [ER-P-32, 3-((1'-(((1S,4s)-4-((1-(4-((1R,2S)-6-hydroxy-2-phenyl-1,2,3,4-tetrahydronaphthalen-1-yl)phenyl)piperidin-4-yl)oxy)cyclohexyl)methyl)-2H-spiro[benzofuran-3,4'-piperidin]-6-yl)(methyl)amino)piperidine-2,6-dione]	7.71	6.15	-2	15	12	13
